The target in assay [1] is T1, Histone deacetylase 8 (Homo sapiens) (UniProt Q9BY41).
T1 sequence (whole entry): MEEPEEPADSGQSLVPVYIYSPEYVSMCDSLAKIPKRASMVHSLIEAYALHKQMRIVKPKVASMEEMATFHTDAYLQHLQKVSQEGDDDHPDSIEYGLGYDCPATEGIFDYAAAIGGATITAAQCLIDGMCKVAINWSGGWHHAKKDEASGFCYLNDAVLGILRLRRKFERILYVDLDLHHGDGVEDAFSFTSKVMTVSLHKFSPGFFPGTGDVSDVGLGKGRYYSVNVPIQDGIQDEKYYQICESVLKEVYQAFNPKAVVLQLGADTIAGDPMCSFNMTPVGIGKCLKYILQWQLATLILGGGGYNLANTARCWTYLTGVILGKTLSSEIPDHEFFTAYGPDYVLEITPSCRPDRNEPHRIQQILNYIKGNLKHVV
Description: Inhibition of human KDAC8 at 30 uM after 60 mins by fluorescence assay relative to control.

Assay [2] deals with T2, Histone deacetylase 3 (Homo sapiens, UniProt O15379). In words: Inhibition of human KDAC3 using FITC-labeled p53 acetylated peptide as substrate after 60 mins by fluorescence assay.
T2 sequence (O15379 whole entry): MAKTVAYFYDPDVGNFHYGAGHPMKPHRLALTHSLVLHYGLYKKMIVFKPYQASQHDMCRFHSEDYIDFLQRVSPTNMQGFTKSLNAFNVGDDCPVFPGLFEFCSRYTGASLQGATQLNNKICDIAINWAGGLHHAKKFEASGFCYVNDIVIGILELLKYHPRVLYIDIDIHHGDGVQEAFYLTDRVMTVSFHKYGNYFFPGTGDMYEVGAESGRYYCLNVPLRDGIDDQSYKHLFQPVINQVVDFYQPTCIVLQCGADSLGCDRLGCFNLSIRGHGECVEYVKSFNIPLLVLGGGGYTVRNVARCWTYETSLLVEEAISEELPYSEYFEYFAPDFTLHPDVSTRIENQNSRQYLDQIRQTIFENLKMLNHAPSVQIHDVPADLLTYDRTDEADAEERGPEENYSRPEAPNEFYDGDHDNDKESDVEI
The target in assay [3] is T2, Histone deacetylase 3. In words: Inhibition of human KDAC3 at 30 uM using FITC-labeled p53 acetylated peptide as substrate after 60 mins by fluorescence assay relative to control.
In assay [4] the target is T3, Protein deacetylase HDAC6 (Homo sapiens) (UniProt Q9UBN7).
T3 sequence (whole entry): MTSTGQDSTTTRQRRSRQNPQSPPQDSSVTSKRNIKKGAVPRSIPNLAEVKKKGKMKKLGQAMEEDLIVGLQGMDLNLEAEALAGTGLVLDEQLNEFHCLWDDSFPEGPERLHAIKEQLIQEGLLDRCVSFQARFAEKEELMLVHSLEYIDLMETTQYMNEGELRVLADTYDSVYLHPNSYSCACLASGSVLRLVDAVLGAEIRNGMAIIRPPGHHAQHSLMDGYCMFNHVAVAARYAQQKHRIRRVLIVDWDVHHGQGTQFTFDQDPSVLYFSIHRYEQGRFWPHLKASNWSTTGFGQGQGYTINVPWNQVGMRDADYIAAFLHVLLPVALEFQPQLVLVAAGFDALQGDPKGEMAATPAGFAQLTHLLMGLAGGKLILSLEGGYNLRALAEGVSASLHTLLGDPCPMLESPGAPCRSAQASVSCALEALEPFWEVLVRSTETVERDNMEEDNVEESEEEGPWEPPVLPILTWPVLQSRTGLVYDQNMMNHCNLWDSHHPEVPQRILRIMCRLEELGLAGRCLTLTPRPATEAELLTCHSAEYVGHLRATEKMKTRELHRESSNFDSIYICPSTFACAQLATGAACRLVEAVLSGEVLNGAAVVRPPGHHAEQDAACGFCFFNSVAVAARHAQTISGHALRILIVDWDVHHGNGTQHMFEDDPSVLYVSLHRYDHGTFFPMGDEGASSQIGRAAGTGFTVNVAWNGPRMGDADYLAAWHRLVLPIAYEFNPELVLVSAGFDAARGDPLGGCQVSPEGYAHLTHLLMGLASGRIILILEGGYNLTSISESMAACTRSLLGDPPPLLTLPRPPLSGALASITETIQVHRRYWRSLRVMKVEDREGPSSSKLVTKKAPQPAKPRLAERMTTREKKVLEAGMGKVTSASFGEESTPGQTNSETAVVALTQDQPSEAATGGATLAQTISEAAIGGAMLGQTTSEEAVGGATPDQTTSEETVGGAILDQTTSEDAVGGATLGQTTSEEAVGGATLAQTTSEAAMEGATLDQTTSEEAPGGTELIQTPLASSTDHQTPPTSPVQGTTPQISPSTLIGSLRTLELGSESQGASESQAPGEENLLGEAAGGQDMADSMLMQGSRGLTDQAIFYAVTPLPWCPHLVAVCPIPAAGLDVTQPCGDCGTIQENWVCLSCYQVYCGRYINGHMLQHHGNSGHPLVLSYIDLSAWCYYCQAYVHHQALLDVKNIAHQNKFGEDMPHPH
The following applies: at 30 µM.
Description: Inhibition of human KDAC6 at 30 uM using FITC-labeled histone H4 acetylated peptide as substrate after 60 mins by fluorescence assay relative to control

The target in another assay is T4, Histone deacetylase 8 (Homo sapiens, UniProt Q9BY41).
T4 sequence (Q9BY41 whole entry): T1 sequence (whole entry)
In words: Inhibition of human KDAC8 after 60 mins by fluorescence assay.

Assay [5] deals with T5, Protein deacetylase HDAC6 (Homo sapiens, UniProt Q9UBN7).
T5 sequence (Q9UBN7 whole entry): T3 sequence (whole entry)
In words: Inhibition of human KDAC6 using FITC-labeled histone H4 acetylated peptide as substrate after 60 mins by fluorescence assay.

For assay [6], the target named is T6, Histone deacetylase 1 (Homo sapiens, UniProt Q13547). In words: Inhibition of human KDAC1 using substrate A after 60 mins by fluorescence assay.
T6 sequence (Q13547 whole entry): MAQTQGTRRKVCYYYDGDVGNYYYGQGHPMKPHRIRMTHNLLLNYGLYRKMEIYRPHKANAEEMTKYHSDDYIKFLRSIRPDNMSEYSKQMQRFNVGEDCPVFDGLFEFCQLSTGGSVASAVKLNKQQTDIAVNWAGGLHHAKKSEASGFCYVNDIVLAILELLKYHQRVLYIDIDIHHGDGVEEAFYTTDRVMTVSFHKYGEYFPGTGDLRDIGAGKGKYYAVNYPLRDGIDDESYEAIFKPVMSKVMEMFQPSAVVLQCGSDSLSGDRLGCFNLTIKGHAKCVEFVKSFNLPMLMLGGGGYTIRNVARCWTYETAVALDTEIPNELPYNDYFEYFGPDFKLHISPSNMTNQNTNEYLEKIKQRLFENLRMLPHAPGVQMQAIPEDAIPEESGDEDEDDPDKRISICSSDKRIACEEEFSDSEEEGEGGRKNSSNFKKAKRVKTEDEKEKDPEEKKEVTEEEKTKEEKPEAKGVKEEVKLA
Assay [7] has as its target T6, Histone deacetylase 1. Description: Inhibition of human KDAC1 at 30 uM using substrate A after 60 mins by fluorescence assay relative to control.

Structures are written as SMILES.

The text below walks through data of ChEMBL document CHEMBL3997794, “Design and synthesis of benzodiazepine analogs as isoform-selective human lysine deacetylase inhibitors” (Eur J Med Chem, 2017).

Consider `CC(C)(C)OC(=O)CC[C@H]1N=C(c2ccccc2)c2ccccc2NC1=O`, for which the inhibition in assay [1] is 4.35%; on Histone deacetylase 3 [3] it was 3.85%; in assay [4], 4.3%; against Histone deacetylase 1 [7], 10.5%. The IC50 (against Histone deacetylase 3 [2]; on Histone deacetylase 8; in assay [5]; on Histone deacetylase 1 [6]) was over 30 µM throughout.

Consider `CC(C)(C)OC[C@@H]1N=C(c2ccccc2)c2ccccc2NC1=O`, for which the inhibition in assay [1] was found to be 0%; on Histone deacetylase 3 [3] it was 0.38%; in assay [4], 2.44%; against Histone deacetylase 1 [7], 1.48%. Besides, the IC50 (against Histone deacetylase 3 [2]; against Histone deacetylase 8; in assay [5]; at Histone deacetylase 1 [6]) was over 30 µM each time.

For `COC(=O)CCCCN1C(=O)[C@H](CCSC)N=C(c2ccccc2)c2ccccc21`, the inhibition (in assay [1]; at Histone deacetylase 3 [3]; in assay [4]; at Histone deacetylase 1 [7]) was 0% each time. Also, the IC50 (against Histone deacetylase 3 [2]; on Histone deacetylase 8; in assay [5]; against Histone deacetylase 1 [6]) was over 30 µM each time.

As to `O=C(O)CCCCN1C(=O)[C@H](CC(=O)O)N=C(c2ccccc2)c2ccccc21`, the inhibition came out at 0% in assay [1], 1.93% at Histone deacetylase 3 [3], 0% in assay [4] and 0% against Histone deacetylase 1 [7]. Also, the IC50 (against Histone deacetylase 3 [2]; against Histone deacetylase 8; in assay [5]; against Histone deacetylase 1 [6]) was over 30 µM in each case.

Take `CC(C)(C)SC[C@H]1N=C(c2ccccc2)c2ccccc2NC1=O`: the inhibition in assay [1] turned out to be 16.1%; on Histone deacetylase 3 [3], 2.88%; in assay [4], 2.05%; against Histone deacetylase 1 [7] it was 4.1%. For the same compound, the IC50 (against Histone deacetylase 3 [2]; on Histone deacetylase 8; in assay [5]; against Histone deacetylase 1 [6]) was over 30 µM in each case.

On to `COC(=O)CCCCN1C(=O)[C@H](CCC(=O)OC(C)(C)C)N=C(c2ccccc2)c2ccccc21`, for which the inhibition in assay [1] worked out at 2.88%; against Histone deacetylase 3 [3], 0%; in assay [4], 0%; at Histone deacetylase 1 [7], 2.72%. In addition, the IC50 (against Histone deacetylase 3 [2]; against Histone deacetylase 8; in assay [5]; against Histone deacetylase 1 [6]) was over 30 µM in each case.

Turning to `COC(=O)CCCCN1C(=O)[C@H](COC(C)(C)C)N=C(c2ccccc2)c2ccccc21`, the inhibition in assay [1] came to 5%; against Histone deacetylase 3 [3], 0%; in assay [4], 0%; against Histone deacetylase 1 [7] it was 0.36%. Further, the IC50 (against Histone deacetylase 3 [2]; on Histone deacetylase 8; in assay [5]; against Histone deacetylase 1 [6]) was over 30 µM in each case.

In the case of `O=C(C[C@@H]1N=C(c2ccccc2)c2ccccc2NC1=O)NC(c1ccccc1)(c1ccccc1)c1ccccc1`, the inhibition in assay [1] was determined as 0%; against Histone deacetylase 3 [3], 0%; in assay [4], 0%; against Histone deacetylase 1 [7] it was 4.31%. In addition, the IC50 (on Histone deacetylase 3 [2]; on Histone deacetylase 8; in assay [5]; at Histone deacetylase 1 [6]) was over 30 µM in each case.

For `O=C(CC[C@@H]1N=C(c2ccccc2)c2ccccc2NC1=O)NO`, the inhibition in assay [1] worked out at 43.8%; against Histone deacetylase 3 [3], 4.57%; in assay [4] it was 36.5%; against Histone deacetylase 1 [7], 64.4%. Also, the IC50 on Histone deacetylase 3 [2] was over 30 µM; on Histone deacetylase 8, over 30 µM; in assay [5], over 30 µM; at Histone deacetylase 1 [6], 16.9 µM.

Take `CSCC[C@@H]1N=C(c2ccccc2)c2ccccc2N(CCCCC(=O)O)C1=O`: the inhibition was found to be 2.75% in assay [1], 0% at Histone deacetylase 3 [3], 0% in assay [4] and 4.46% against Histone deacetylase 1 [7]. Moreover, the IC50 (at Histone deacetylase 3 [2]; at Histone deacetylase 8; in assay [5]; against Histone deacetylase 1 [6]) was over 30 µM throughout.

For the compound `C[C@@H]1N=C(c2ccccc2)c2ccccc2N(CCCCC(=O)NO)C1=O`, the inhibition was 53.8% in assay [1], 93.8% at Histone deacetylase 3 [3], 92.7% in assay [4] and 68.4% at Histone deacetylase 1 [7]. In addition, the IC50 at Histone deacetylase 3 [2] amounted to 1.8 µM; against Histone deacetylase 8, 24.7 µM; in assay [5], 2.95 µM; at Histone deacetylase 1 [6], 12.7 µM.

For `O=C(CCCNC(=O)C[C@@H]1N=C(c2ccccc2)c2ccccc2NC1=O)NO`, the inhibition is 45.1% in assay [1], 90.7% at Histone deacetylase 3 [3], 95% in assay [4] and 63.5% on Histone deacetylase 1 [7]. Also, the IC50 was 3.21 µM on Histone deacetylase 3 [2], over 30 µM at Histone deacetylase 8, 1.76 µM in assay [5] and 17.4 µM at Histone deacetylase 1 [6].

As to `COC(=O)CCCCN1C(=O)[C@H](C)N=C(c2ccccc2)c2ccccc21`, the inhibition turned out to be 12.7% in assay [1], 4.62% on Histone deacetylase 3 [3], 8.84% in assay [4] and 9.4% against Histone deacetylase 1 [7]. Further, the IC50 (on Histone deacetylase 3 [2]; at Histone deacetylase 8; in assay [5]; against Histone deacetylase 1 [6]) was over 30 µM in each case.

For the compound `COC(=O)CCCCN1C(=O)[C@H](CCCCNC(=O)OC(C)(C)C)N=C(c2ccccc2)c2ccccc21`, the inhibition amounted to 1.03% in assay [1], 1.96% against Histone deacetylase 3 [3], 0% in assay [4] and 8.22% on Histone deacetylase 1 [7]. The IC50 (on Histone deacetylase 3 [2]; at Histone deacetylase 8; in assay [5]; against Histone deacetylase 1 [6]) was over 30 µM each time.

On to `COC(=O)CCCCN1C(=O)[C@H]([C@@H](C)OCc2ccccc2)N=C(c2ccccc2)c2ccccc21`, for which the inhibition in assay [1] was 6.88%; on Histone deacetylase 3 [3], 7.91%; in assay [4], 0%; against Histone deacetylase 1 [7], 0.64%. For the same compound, the IC50 (at Histone deacetylase 3 [2]; on Histone deacetylase 8; in assay [5]; on Histone deacetylase 1 [6]) was over 30 µM each time.

As to `CC(C)C[C@@H]1N=C(c2ccccc2)c2ccccc2NC1=O`, the inhibition in assay [1] was determined as 0%; against Histone deacetylase 3 [3], 0%; in assay [4], 5.48%; against Histone deacetylase 1 [7], 2.85%. Besides, the IC50 (against Histone deacetylase 3 [2]; at Histone deacetylase 8; in assay [5]; against Histone deacetylase 1 [6]) was over 30 µM throughout.

As to `O=C(C[C@H]1N=C(c2ccccc2)c2ccccc2NC1=O)NO`, the inhibition worked out at 19% in assay [1], 1.64% on Histone deacetylase 3 [3], 0% in assay [4] and 9.14% against Histone deacetylase 1 [7]. The IC50 (on Histone deacetylase 3 [2]; against Histone deacetylase 8; in assay [5]; on Histone deacetylase 1 [6]) was over 30 µM in each case.

`NC(=O)CC[C@@H]1N=C(c2ccccc2)c2ccccc2N(CCCCC(=O)NO)C1=O`: the inhibition in assay [1] was found to be 30.8%; on Histone deacetylase 3 [3], 94%; in assay [4], 96%; against Histone deacetylase 1 [7] it was 64.5%. Also, the half-maximal inhibitory concentration (IC50) at Histone deacetylase 3 [2] is 1.94 µM; against Histone deacetylase 8 it was over 30 µM; in assay [5], 1.29 µM; on Histone deacetylase 1 [6], 13.9 µM.
